In this experiment the test system is Bronchial epithelial cells + Fibroblasts. The experiment can be described thus: BioMAP BF4T system (IL-4 + TNF-α), scoring of readout parameters. Type of experiment: cell-based, human. Also on record: key: 1 = modulated in desired direction, 0 = not (−1 if opposite). To be noted: for MMP-3 score / PAI-1 score: desired change decrease; for MMP-1 score / uPA score: desired change increase. As to the method:
In the “BF4T” system, bronchial epithelial cells, usually primary human bronchial epithelial cells, are cultured with fibroblasts, usually primary human fibroblasts, in the presence of TNF-α and IL-4. In addition to the factors, stimuli of interest that may be included in the culture medium include TGF-β, IL-5, II-10, IL-9, Tryptase, GM-CSF, II-17, CD40L, Histamine, IgE stimulated Mast Cells, LTB4 stimulated neutrophils, and PBMC stimulated with LPS or SAg.
Human neonatal fibroblasts (HDFn) and normal human bronchial epithelial cells (BrEPI) are used. Human lung fibroblasts (adult or neonatal) could also be used. HDFn are cultured in DMEM/F12 (50/50) from Cellgro, supplemented with LSGS kit (from Cascade Biologics); fetal bovine serum, 2% v/v, hydrocortisone 1 μg/ml, human epidermal growth factor 10 ng/ml, basic fibroblast growth factor 3 ng/ml and heparin 10 μg/ml, and penicillin/streptomycin amphotericin B solution (PSA). BrEPI are cultured in supplemented BEBM medium (Cambrex) at 2×10^4/ml. BrEPI may also be cultured with Bronchial/Tracheal Epithelial Cell Serum-Free Growth Medium (Cell Applications, Inc.) or F12/DMEM supplemented with 10 μg/ml rhu-insulin, 10 μg/ml transferrin, 10 ng/ml epidermal growth factor (EGF), 1 μM ethanolamine, 25 μg/ml aprotinin, 25 μg/ml glucose, 1 μM phosphoethanolamine, 5 μM triiodothyronine, 50 nM selenium, 1 nM hydrocortisone, 1 nM progesterone, 5 μM forskolin, 10 μM heregulin β177-244, 5 μl/ml fibronectin, 4 μl/ml bovine pituitary extract and retinoid acid. HDFn are plated for assays at 3×10^4 cells/ml. After 2 days, media is replaced with BrEPI media containing 10^4 BrEPI cells and cultured for a further 2 days.
Upon reaching confluency, the test agent or buffer control is added and the following are applied: 5 ng/ml of IL-4 and 5 ng/ml TNF-α (BF4T). After another 24 hours incubation (37° C., 5% CO2) the cultures are evaluated for the following parameters: CD90, Keratin 8/18, Eotaxin-3, I-TAC, ICAM-1, EGFR, IL-1α, IL-8, MCP-1, MMP-9, MMP-1, MMP-3, PAI-1, TGF-β3, TIMP-2, uPA, tPA, CD87 and VCAM-1. Additional readouts of interest may include IP-10, Elafin/SKALP, Endothelin-1, Gro-a, CD119, IL-6, GM-CSF, IL-16, FGF, PDGF, CD44, E-cadherin, CD40, IL-15Ralpha, CD1d, CD80, CD86, TARC, eotaxin-1, CD95, MCP-4 and MIP-3a. Other stimuli of interest include: TGFbeta, IL-5, II-10, IL-9, Tryptase, GM-CSF, II-17, CD40L, Histamine, IgE stimulated Mast Cells, LTB4 stimulated neutrophils, and PBMC stimulated with LPS or SAg.
Each screened compound is scored according to its modulation of the selected readout parameters. Compounds receive a positive score (score of 1) or negative score (score of 0) for each readout parameter set forth in Table 2 that is modulated in the desired direction. […] Parameters may be penalized by making the positive score a −1 for parameters where regulation is opposite to the desired direction.
Cell culture. Human umbilical vein endothelial cells (HUVEC) were pooled from multiple donors, cultured according to standard methods, and plated into microtiter plates at passage 4. Cell culture medium for all systems containing HUVEC included hydrocortisone. Coronary artery smooth muscle cells (CASM3C) and umbilical artery smooth muscle cells (HSM3C) were cultured according to standard procedures. Peripheral blood mononuclear cells (PBMC) were prepared from buffy coats from normal human donors according to standard methods. Monocyte-derived macrophages were differentiated in the presence of M-CSF for 7 d according to standard procedures. Human dermal fibroblasts were pooled from 3 donors, cultured according to standard methods, and plated confluent 24 h before stimulation. Cell culture medium for all systems containing fibroblasts and keratinocytes contained low hydrocortisone. Epidermal keratinocytes and bronchial epithelial cells from 3 donors were cultured according to standard procedures and pooled when plated into microtiter plates.

As for `Cn1cnc([N+](=O)[O-])c1Sc1ncnc2nc[nH]c12` [Azathioprine], the MMP-3 score amounted to 0, the PAI-1 score was determined as 0, the MMP-1 score was determined as 0 and the uPA score was determined as 0.

Take `CCc1oc2ccccc2c1C(=O)c1cc(Br)c(O)c(Br)c1` [Benzbromarone]: the MMP-3 score amounted to 1, the PAI-1 score is on record as 0, the MMP-1 score came out at 0 and the uPA score is listed as 0.

For `C=C1CC[C@H](O)C/C1=C/C=C1\CCC[C@]2(C)[C@@H]([C@H](C)/C=C/[C@H](C)C(C)C)CC[C@@H]12` [Calciferol], the MMP-3 score worked out at 0, the PAI-1 score was determined as 0, the MMP-1 score is on record as 0 and the uPA score turned out to be 1.

In the case of `COc1cc2c(c(OC)c1OC)-c1ccc(OC)c(=O)cc1[C@@H](NC(C)=O)CC2` [Colchicine], the MMP-3 score was found to be 0, the PAI-1 score is 0, the MMP-1 score is given as 0 and the uPA score was 0.

In the case of `O=C(O)c1ccccc1Nc1cccc(C(F)(F)F)c1` [Flufenamic Acid], the MMP-3 score is on record as 0, the PAI-1 score was found to be 1, the MMP-1 score turned out to be 0 and the uPA score was 0.

Regarding `Fc1ccc(C(OCCN2CCN(CCCc3ccccc3)CC2)c2ccc(F)cc2)cc1` [GBR 12909], the MMP-3 score is recorded as 0, the PAI-1 score was 0, the MMP-1 score is 0 and the uPA score was 0.

Turning to `CCCCN(CCCC)CCC(O)c1cc2c(Cl)cc(Cl)cc2c2cc(C(F)(F)F)ccc12` (stereo not drawn) [Halofantrine], the MMP-3 score was found to be 0, the PAI-1 score worked out at 1, the MMP-1 score came out at 0 and the uPA score came out at 0.

As for `CCN(CC)CCNc1ccc(CO)c2sc3ccccc3c(=O)c12` [Hycanthone], the MMP-3 score was 0, the PAI-1 score amounted to 0, the MMP-1 score is on record as 0 and the uPA score was found to be 0.

Turning to `O=c1cc(-c2ccc(O)c(O)c2)oc2cc(O)cc(O)c12` [Luteolin], the MMP-3 score amounted to 0, the PAI-1 score is recorded as 1, the MMP-1 score is given as 0 and the uPA score came out at 0.

In the case of `COC(=O)Nc1nc2ccc(SC(C)C)cc2[nH]1` [Methiazole], the MMP-3 score came to 1, the PAI-1 score is recorded as 1, the MMP-1 score turned out to be 0 and the uPA score was determined as 0.

Consider `C[C@]12C=CC(=O)C=C1CC[C@@H]1[C@@H]2[C@@H](O)C[C@@]2(C)[C@H]1CC[C@]2(O)C(=O)CO` [Prednisolone], for which the MMP-3 score is reported as 0, the PAI-1 score is 0, the MMP-1 score was determined as 0 and the uPA score worked out at 0.

With `Cc1c(Cl)cccc1Nc1ccccc1C(=O)O` [Tolfenamic Acid], the MMP-3 score was determined as 1, the PAI-1 score is listed as 1, the MMP-1 score came out at 0 and the uPA score stood at 0.

For the compound `COc1cc(-c2ccc(=O)[nH]n2)ccc1OC(F)F` [Zardaverine], the MMP-3 score was found to be 0, the PAI-1 score is reported as 1, the MMP-1 score was 0 and the uPA score is 0.

Regarding (R)-(−)-Apomorphine, the MMP-3 score was 0, the PAI-1 score is recorded as 0, the MMP-1 score is 0 and the uPA score amounted to 0.

Regarding Antimycin A, the MMP-3 score worked out at 0, the PAI-1 score is listed as 0, the MMP-1 score worked out at 0 and the uPA score is 1.
